From US8178077B2, “Drug development target protein and target gene, and method of screening” (Reverse Proteomics Research Institute Co., Ltd., priority 2004, dated 2012)

Target: T1, FLJ39196 clone-derived protein (human neurocalcin δ) (Homo sapiens, UniProt P61601)
T1 construct: A human full-length cDNA clone was expressed as a protein with an N-terminal His tag; His tag (N); made in house; host or cells: Escherichia coli BL21star(DE3)pLysS (pDEST17 Gateway expression plasmid)
Assay: SEC/MS interaction analysis (size exclusion spin column and mass analysis) with FLJ39196 clone-derived protein
Format: binding
Text: To analyze the interactions between commonly used drugs and proteins expressed from human full-length cDNA clones while keeping both the proteins and the compounds in non-modified, non-immobilized state, size exclusion chromatography (SEC) and mass analysis were used in combination (FIGS. 1, 2). The specific procedures are shown below.
The compound-protein mixture prepared in step 1 was subjected to chromatography using an SEC column, the compound and the protein were separated by SEC, and the compound that interacted with the bound compound or protein contained in the protein fraction was analyzed using a mass analyzer.
Protein concentrations were measured using BCA Protein Assay (PIERCE), in consideration of the purity calculated by SDS-PAGE.
Mass analysis was performed using LCQ DECA XP (Thermoelectron) or Q-TOFmicro (Micromass), equipped with an ESI probe. The LC pump used was Agilent 1100 (Yokogawa Analytical Systems), and the autosampler used was HTC-PAL (CTC Analytics) equipped with a cooling stacker.
In the SEC method using 384-well spin columns, Unifilter 100 (Whatman), packed with 10 μL (dry volume) of Bio-Gel P6 (BIO-RAD) and swollen with milliQ water, was used as the SEC column. 13.3 μL of a protein-free reference standard or a 25 μM protein standard and 0.7 μL of a multiplied liquid comprising 25 μM of each pharmaceutical compound (5% DMSO aqueous solution) were mixed; 9 μL of this mixture was aliquoted into the SEC spin columns. The SEC spin column was mounted on an acetonitrile-aliquoted 384-well U-bottom plate and centrifuged; the SEC spin column filtrate, which is a protein fraction, was retrieved in 50% acetonitrile. The protein precipitate produced by the acetonitrile was removed via centrifugation and filtration for deproteinization; the resulting filtrate was concentrated by centrifugation and re-dissolved in 10 μL of 50% methanol to obtain a mass analysis sample. The mobile phase supplied to the mass analyzer was 0.1% formic acid/50% methanol solution in the positive ion mode, and 0.1% ammonia/50% methanol solution in the negative ion mode; these mobile phases were used at a flow rate of 40 μL/min. 2-μL of mass analysis samples were injected using an autosampler at 2-minute intervals; the mass spectral intensity of the compound was measured to obtain the spectral intensity of the pharmaceutical compound contained in the SEC spin column filtrate (protein fraction eluted from SEC).

[1] = protein 0 μM (protein-free reference), compound 1 μM
[2] = protein 0 μM (protein-free reference), compound 10 μM
[3] = protein 0 μM (protein-free reference), compound 100 μM
[4] = protein 0 μM (protein-free reference), compound 250 μM
[5] = protein 23.75 μM, compound 1 μM
[6] = protein 23.75 μM, compound 10 μM
[7] = protein 23.75 μM, compound 100 μM
[8] = protein 23.75 μM, compound 250 μM
[9] = protein 47.5 μM, compound 10 μM
[10] = protein 47.5 μM, compound 100 μM
[11] = protein 47.5 μM, compound 250 μM

Question: For `CCc1oc2ccccc2c1C(=O)c1cc(Br)c(O)c(Br)c1` [Benzbromarone], which “spectral intensity of the compound in the SEC spin column filtrate (protein fraction)” value (from here on “spectral intensity … (protein fraction)”) [1] is on record?
Answer: 231212

Question: And the “spectral intensity … (protein fraction)” value [2]?
Answer: 300847

Question: And the “spectral intensity … (protein fraction)” value [3]?
Answer: 378850

Question: And the “spectral intensity … (protein fraction)” value [4]?
Answer: 461737

Question: And the “spectral intensity … (protein fraction)” value [5]?
Answer: 357666

Question: And the “spectral intensity … (protein fraction)” value [6]?
Answer: 1258120

Question: And the “spectral intensity … (protein fraction)” value [7]?
Answer: 10722991

Question: And the “spectral intensity … (protein fraction)” value [8]?
Answer: 19795682

Question: What about the “spectral intensity … (protein fraction)” value (protein 47.5 μM, compound 1 μM) of the same compound?
Answer: 412022

Question: And the “spectral intensity … (protein fraction)” value [9]?
Answer: 1942184

Question: What about the “spectral intensity … (protein fraction)” value [10] of the same compound?
Answer: 29076230

Question: What about the “spectral intensity … (protein fraction)” value [11] of the same compound?
Answer: 43413619

Question: Which “spectral intensity … (protein fraction)” value [1] does the source give for `NS(=O)(=O)c1cc2c(cc1Cl)N=C(CSCc1ccccc1)NS2(=O)=O` [Benzthiazide] here?
Answer: 271261

Question: What about the “spectral intensity … (protein fraction)” value [2] of the same compound?
Answer: 505597

Question: What about the “spectral intensity … (protein fraction)” value [3] of the same compound?
Answer: 1323031

Question: And the “spectral intensity … (protein fraction)” value [4]?
Answer: 1475428

Question: And the “spectral intensity … (protein fraction)” value [5]?
Answer: 361168

Question: What about the “spectral intensity … (protein fraction)” value [6] of the same compound?
Answer: 1095223

Question: And the “spectral intensity … (protein fraction)” value [7]?
Answer: 9348303

Question: What about the “spectral intensity … (protein fraction)” value [8] of the same compound?
Answer: 25333199

Question: What about the “spectral intensity … (protein fraction)” value (protein 47.5 μM, compound 1 μM) of the same compound?
Answer: 249695

Question: And the “spectral intensity … (protein fraction)” value [9]?
Answer: 1261413

Question: What about the “spectral intensity … (protein fraction)” value [10] of the same compound?
Answer: 16067473

Question: What about the “spectral intensity … (protein fraction)” value [11] of the same compound?
Answer: 28434802

Question: Which results are given for `CC(C)COCC(CN(Cc1ccccc1)c1ccccc1)N1CCCC1` (stereo not drawn) [Bepridil]?
Answer: spectral intensity of the compound in the SEC spin column filtrate (protein fraction) [1]: 9581826; spectral intensity of the compound in the SEC spin column filtrate (protein fraction) [2]: 14048756; spectral intensity of the compound in the SEC spin column filtrate (protein fraction) [3]: 358168208; spectral intensity of the compound in the SEC spin column filtrate (protein fraction) [4]: 1566782176; spectral intensity of the compound in the SEC spin column filtrate (protein fraction) [5]: 7408112; spectral intensity of the compound in the SEC spin column filtrate (protein fraction) [6]: 35655439; spectral intensity of the compound in the SEC spin column filtrate (protein fraction) [7]: 771184721; spectral intensity of the compound in the SEC spin column filtrate (protein fraction) [8]: 1841002486; spectral intensity of the compound in the SEC spin column filtrate (protein fraction) (protein 47.5 μM, compound 1 μM): 7866658; spectral intensity of the compound in the SEC spin column filtrate (protein fraction) [9]: 40680909; spectral intensity of the compound in the SEC spin column filtrate (protein fraction) [10]: 1156825217; spectral intensity of the compound in the SEC spin column filtrate (protein fraction) [11]: 1990085657

Question: What does the source list for `CC(O)(CS(=O)(=O)c1ccc(F)cc1)C(=O)Nc1ccc(C#N)c(C(F)(F)F)c1` (stereo not drawn) [Bicaltamide]?
Answer: spectral intensity of the compound in the SEC spin column filtrate (protein fraction) [1]: 196020; spectral intensity of the compound in the SEC spin column filtrate (protein fraction) [2]: 269681; spectral intensity of the compound in the SEC spin column filtrate (protein fraction) [3]: 3889442; spectral intensity of the compound in the SEC spin column filtrate (protein fraction) [4]: 1804944; spectral intensity of the compound in the SEC spin column filtrate (protein fraction) [5]: 264437; spectral intensity of the compound in the SEC spin column filtrate (protein fraction) [6]: 914364; spectral intensity of the compound in the SEC spin column filtrate (protein fraction) [7]: 18349511; spectral intensity of the compound in the SEC spin column filtrate (protein fraction) [8]: 53664833; spectral intensity of the compound in the SEC spin column filtrate (protein fraction) (protein 47.5 μM, compound 1 μM): 390946; spectral intensity of the compound in the SEC spin column filtrate (protein fraction) [9]: 4168309; spectral intensity of the compound in the SEC spin column filtrate (protein fraction) [10]: 24933110; spectral intensity of the compound in the SEC spin column filtrate (protein fraction) [11]: 112816687

Question: Which results are given for `CN(C)CC/C=C1/c2ccccc2Sc2ccc(Cl)cc21` [Chlorprothixene]?
Answer: spectral intensity of the compound in the SEC spin column filtrate (protein fraction) [1]: 12908294; spectral intensity of the compound in the SEC spin column filtrate (protein fraction) [2]: 15368592; spectral intensity of the compound in the SEC spin column filtrate (protein fraction) [3]: 30558420; spectral intensity of the compound in the SEC spin column filtrate (protein fraction) [4]: 80321853; spectral intensity of the compound in the SEC spin column filtrate (protein fraction) [5]: 21615977; spectral intensity of the compound in the SEC spin column filtrate (protein fraction) [6]: 31548696; spectral intensity of the compound in the SEC spin column filtrate (protein fraction) [7]: 104338961; spectral intensity of the compound in the SEC spin column filtrate (protein fraction) [8]: 243359670; spectral intensity of the compound in the SEC spin column filtrate (protein fraction) (protein 47.5 μM, compound 1 μM): 25013147; spectral intensity of the compound in the SEC spin column filtrate (protein fraction) [9]: 52145413; spectral intensity of the compound in the SEC spin column filtrate (protein fraction) [10]: 207034486; spectral intensity of the compound in the SEC spin column filtrate (protein fraction) [11]: 433637183

Question: With `CC(C)[C@@]1(NC(=O)[C@@H]2C[C@@H]3c4cccc5[nH]cc(c45)C[C@H]3N(C)C2)O[C@@]2(O)[C@@H]3CCCN3C(=O)[C@H](Cc3ccccc3)N2C1=O` [Dihydroergocristine] as the compound, how does the “spectral intensity … (protein fraction)” value [1] read?
Answer: 25663523

Question: And the “spectral intensity … (protein fraction)” value [2]?
Answer: 10810305

Question: And the “spectral intensity … (protein fraction)” value [3]?
Answer: 75466444

Question: And the “spectral intensity … (protein fraction)” value [4]?
Answer: 137535150

Question: And the “spectral intensity … (protein fraction)” value [5]?
Answer: 68120944

Question: What about the “spectral intensity … (protein fraction)” value [6] of the same compound?
Answer: 327393156

Question: And the “spectral intensity … (protein fraction)” value [7]?
Answer: 910395859

Question: And the “spectral intensity … (protein fraction)” value [8]?
Answer: 871970698

Question: And the “spectral intensity … (protein fraction)” value (protein 47.5 μM, compound 1 μM)?
Answer: 95970671

Question: And the “spectral intensity … (protein fraction)” value [9]?
Answer: 593118709

Question: And the “spectral intensity … (protein fraction)” value [10]?
Answer: 1961163889

Question: And the “spectral intensity … (protein fraction)” value [11]?
Answer: 2985742521

Question: Which “spectral intensity … (protein fraction)” value [1] does the source give for `CC(NCCC(c1ccccc1)c1ccccc1)c1ccccc1` (stereo not drawn) [Fendiline] here?
Answer: 18341826

Question: What about the “spectral intensity … (protein fraction)” value [2] of the same compound?
Answer: 21106520

Question: And the “spectral intensity … (protein fraction)” value [3]?
Answer: 134902492

Question: What about the “spectral intensity … (protein fraction)” value [4] of the same compound?
Answer: 315067466

Question: And the “spectral intensity … (protein fraction)” value [5]?
Answer: 15884361

Question: And the “spectral intensity … (protein fraction)” value [6]?
Answer: 18323956

Question: What about the “spectral intensity … (protein fraction)” value [7] of the same compound?
Answer: 118321460

Question: And the “spectral intensity … (protein fraction)” value [8]?
Answer: 396979100

Question: And the “spectral intensity … (protein fraction)” value (protein 47.5 μM, compound 1 μM)?
Answer: 24572438

Question: And the “spectral intensity … (protein fraction)” value [9]?
Answer: 26691498

Question: What about the “spectral intensity … (protein fraction)” value [10] of the same compound?
Answer: 256481478

Question: And the “spectral intensity … (protein fraction)” value [11]?
Answer: 565679716

Question: What does the source list for `OCCN1CCN(CC/C=C2/c3ccccc3Sc3ccc(C(F)(F)F)cc32)CC1` [Flupentixol cis-(Z)]?
Answer: spectral intensity of the compound in the SEC spin column filtrate (protein fraction) [1]: 57845690; spectral intensity of the compound in the SEC spin column filtrate (protein fraction) [2]: 59201705; spectral intensity of the compound in the SEC spin column filtrate (protein fraction) [3]: 138331819; spectral intensity of the compound in the SEC spin column filtrate (protein fraction) [4]: 1019443291; spectral intensity of the compound in the SEC spin column filtrate (protein fraction) [5]: 38801184; spectral intensity of the compound in the SEC spin column filtrate (protein fraction) [6]: 66148127; spectral intensity of the compound in the SEC spin column filtrate (protein fraction) [7]: 474717521; spectral intensity of the compound in the SEC spin column filtrate (protein fraction) [8]: 1437323119; spectral intensity of the compound in the SEC spin column filtrate (protein fraction) (protein 47.5 μM, compound 1 μM): 54783295; spectral intensity of the compound in the SEC spin column filtrate (protein fraction) [9]: 82852252; spectral intensity of the compound in the SEC spin column filtrate (protein fraction) [10]: 1301876646; spectral intensity of the compound in the SEC spin column filtrate (protein fraction) [11]: 1766098462

Question: Which results are given for `Cc1cc(-c2ccccc2)nnc1NCCN1CCOCC1` [Minaprine]?
Answer: spectral intensity of the compound in the SEC spin column filtrate (protein fraction) [1]: 15652447; spectral intensity of the compound in the SEC spin column filtrate (protein fraction) [2]: 95722839; spectral intensity of the compound in the SEC spin column filtrate (protein fraction) [3]: 530918568; spectral intensity of the compound in the SEC spin column filtrate (protein fraction) [4]: 1025547751; spectral intensity of the compound in the SEC spin column filtrate (protein fraction) [5]: 10946604; spectral intensity of the compound in the SEC spin column filtrate (protein fraction) [6]: 88615018; spectral intensity of the compound in the SEC spin column filtrate (protein fraction) [7]: 727082711; spectral intensity of the compound in the SEC spin column filtrate (protein fraction) [8]: 1272226745; spectral intensity of the compound in the SEC spin column filtrate (protein fraction) (protein 47.5 μM, compound 1 μM): 10185140; spectral intensity of the compound in the SEC spin column filtrate (protein fraction) [9]: 49245292; spectral intensity of the compound in the SEC spin column filtrate (protein fraction) [10]: 427303459; spectral intensity of the compound in the SEC spin column filtrate (protein fraction) [11]: 1448860391
